In patent US20110263485A1, “Bifunctional Griffithsin Analogs” (priority 2009, published 2011):
“And” between values parts separate entries of the source, which are not always exact repeats. Equal entries are not always repeated. Where two headings read alike, the source gives them in different places.

Experiments:
[1] = test system: JRFL (R5) pseudovirus in TZM-bl cells; test: single round infection assay, JRFL pseudovirus
IIIB (X4) in MAGI cells = test: replication competent HIV assay, IIIB in MAGI cells; type: cell-based
[2] = test system: HeLa-ADA effector cells and HeLa-P5L target cells seeded with 3T3 cells; test: competition R5 fusion assay with mouse 3T3 competitor cells; type: cell-based, HIV-1; details: for inhibition in R5 fusion assay with competitor cells, in words: mouse 3T3 competitor cells
Procedure: In the competition R5 fusion assay, 5×10^3 HeLa-P5L cells were seeded together with 5×10^3 3T3 cells per well. The rest of the procedure was identical to the normal R5 fusion assay.
For a potential therapeutic to be beneficial in an organism, it needs to be able to effectively find its target in the milieu of other cell types and potential binding partners. As a test of this ability, the R5 cell fusion assay was modified with the addition of unrelated mouse 3T3 cells.

multiple clades of HIV = details: cited from earlier work
[3] = test system: NL4-3 (CXCR4-tropic) in PBMCs; test: HIV-1 replication in PBMC, NL4-3; type: cell-based; details: combinations as total protein concentration
[4] = test system: ADA (R5) pseudovirus in TZM-bl cells; details: for IC50: read-out: ADA (R5) single round pseudovirus IC50
[5] = test system: HeLa-ADA effector cells (HIV-1 ADA (R5) env) and HeLa-P5L target cells (CD4, CCR5); test: R5 cell-cell fusion assay; details: for IC50: read-out: R5 fusion assay IC50
HIV [6] = details: cited from earlier work
[7] = test system: HL2/3 effector cells (HXB2 env (X4)) and HeLa-TZM target cells; test: X4 cell-cell fusion assay; type: cell-based, HIV-1
Excerpt: In the X4 fusion assay, HeLa-TZM cells were used as target cells and HL2/3 cells were used as effector cells.

ADA (R5) in MAGI cells = test: replication competent HIV assay, ADA in MAGI cells; type: cell-based
91US005 (R5) in PBMC = test: HIV-1 replication in PBMC, 91US005; type: cell-based
human cervical explants = details: cited from earlier work
[8] = test system: 92HT599 (CXCR4-tropic) in PBMCs; test: HIV-1 replication in PBMC, 92HT599; type: cell-based; details: combinations as total protein concentration
Ba-L (R5) in PBMC = test: HIV-1 replication in PBMC, Ba-L; type: cell-based
[9] = test system: HeLa P5L cells pre-incubated with inhibitor, washed, then HeLa ADA cells; test: R5 fusion assay with wash-out on P5L cells
Ba-L (R5) in MAGI cells = test: replication competent HIV assay, Ba-L in MAGI cells; type: cell-based
rabbit vaginal model = details: in vivo; cited from earlier work
[10] = test system: HeLa ADA cells pre-incubated with inhibitor, washed, then HeLa P5L cells; test: R5 fusion assay with wash-out on ADA cells
CCR5-tropic fusion = details: published reports, vaccinia technology; cited from earlier work
X4 fusion = details: Martin et al. (2003); cited from earlier work
HIV [11] = details: read-out: IC50 (50% inhibition) in in vitro assays; Root & Steger (2004); cited from earlier work
[12] = cited from earlier work

Substance: Griffithsin
- IC50 ([1]; read-out: JRFL (R5) single round pseudovirus IC50): 0.035 ± 0.008 nM
- IC90 ([1]; read-out: JRFL (R5) single round pseudovirus IC90): 1.25 ± 0.19 nM
- IC50 (IIIB (X4) in MAGI cells): 0.145 ± 0.065 nM
- IC90 (IIIB (X4) in MAGI cells): 0.89 ± 0.11 nM
- IC50 ([2]; 3T3 competitor cells): 1.73 ± 0.603 nM
- inhibition in R5 fusion assay with competitor cells, in words [2]: still performs well
- activity against clades of HIV (multiple clades of HIV): active against multiple clades of HIV
- IC50 [3]: 0.17 ± 0.04 nM
- IC90 [3]: 0.725 ± 0.13 nM
- IC50 [4]: 0.008 ± 0.016 nM
- IC90 ([4]; read-out: ADA (R5) single round pseudovirus IC90): 0.164 ± 0.069 nM
- IC50 [5]: 1.31 nM and 1.3 nM
- activity in cervical/vaginal lavage fluid (HIV [6]): retains its activity
- IC50 [7]: 0.48 nM and 0.468 nM
- IC50 (ADA (R5) in MAGI cells): 0.03 ± 0.01 nM
- IC90 (ADA (R5) in MAGI cells): 0.45 ± 0.04 nM
- IC50 (91US005 (R5) in PBMC; PBMCs, Table 8, combinations as total protein concentration, read-out: 91US005 (CCR5-tropic) IC50): 0.28 ± 0.17 nM
- IC90 (91US005 (R5) in PBMC; PBMCs, Table 8, combinations as total protein concentration, read-out: 91US005 (CCR5-tropic) IC90): 0.76 ± 0.15 nM
- IC50 (91US005 (R5) in PBMC; Table 7, read-out: 91US005 (R5) in PBMC IC50): 0.16 ± 0.03 nM
- IC90 (91US005 (R5) in PBMC; Table 7, read-out: 91US005 (R5) in PBMC IC90): 0.51 ± 0.08 nM
- inflammation in human cervical explants (human cervical explants): non-inflammatory
- IC50 [8]: 0.74 ± 0.37 nM
- IC90 [8]: 1.86 ± 0.89 nM
- IC50 (Ba-L (R5) in PBMC; PBMCs, Table 8, combinations as total protein concentration, read-out: Ba-L (CCR5-tropic) IC50): 0.28 ± 0.17 nM
- IC90 (Ba-L (R5) in PBMC; PBMCs, Table 8, combinations as total protein concentration, read-out: Ba-L (CCR5-tropic) IC90): 0.76 ± 0.15 nM
- IC50 (Ba-L (R5) in PBMC; Table 7, read-out: Ba-L (R5) in PBMC IC50): 0.28 ± 0.17 nM
- IC90 (Ba-L (R5) in PBMC; Table 7, read-out: Ba-L (R5) in PBMC IC90): 0.76 ± 0.15 nM
- inhibition after wash-out on target (P5L) cells, in words [9]: still performed well
- IC50 ([9]; read-out: R5 fusion with wash-out on P5L cells IC50): 7.34 ± 3.58 nM
- IC50 (Ba-L (R5) in MAGI cells): 0.04 nM
- IC90 (Ba-L (R5) in MAGI cells): 0.515 ± 0.055 nM
- irritation in a rabbit vaginal model (rabbit vaginal model): non irritating
- inhibition after wash-out on ADA cells, in words [10]: maintained nanomolar effectiveness
- IC50 ([10]; read-out: R5 fusion with wash-out on ADA cells IC50): 4.28 ± 1.5 nM

Substance: GriffC37(Q652L): Griff37 with point mutation Q652L in the C37 part
- inhibition in R5 fusion assay, in words [5]: approximately the same effectiveness as Griff37
- inhibition in X4 fusion assay, in words [7]: similar

Substance: P2-RANTES-linker-Griffithsin: P2-RANTES linked to Griffithsin; SEQ ID NO. 4
- inhibition in R5 fusion assay with competitor cells, in words [2]: appeared to perform better than either protein alone
- inhibition in R5 fusion assay, in words [5]: more effective than Griffithsin alone

Substance: CD4M33: 27 amino acid peptide designed by Martin et al. as a mimic of human CD4 binding HIV gp120 (CNLHFCQLRCKSLGLLGKCAGSFCACV)
- amount required to inhibit CCR5-tropic fusion (CCR5-tropic fusion): micromolar amounts of the peptide are required
- IC50 (X4 fusion): 800 ± 90 nM

Substance: Ac-HTTWMEWDREINNYTSLIHSLIEESQNLQEKNEQELL-NH2 [C37(Q652L)]
- IC50 [4]: 114 ± 4.94 nM
- IC50 [5]: 28.2 ± 8.34 nM

Substance: enfuvirtide
- IC50 (HIV [11]): 2 to 20 nM
- lifetime in vivo [12]: short lifetime of only hours in vivo

Substance: Griff37 I642D: Griff37 with substitution of Asp for Ile at position 642 in C37
- inhibition in R5 fusion assay, in words [5]: shows decreased activity
